Test results as given in patent publication US5116848A, “N-(((2,6-disubstituted)phenyl)-N-diarylalkyl)ureas as antihyperlipidemic and antiatherosclerotic agents” (priority 1988, dated 1992).
pIC50: −log10 of the molar value.

Columns and labels:
[1] = PCC in vivo screen, blood total cholesterol in cholesterol-fed rats; conditions: male Sprague-Dawley rats, diet with 5.5% peanut oil, 1.5% cholesterol, 0.3%-0.5% cholic acid, 0.05% drug in diet, one week
From the text: In one in vivo screen, designated PCC, male Sprague-Dawley rats (approximately 200 g body weight) are randomly divided into groups and provided ad libidum a regular chow diet (Purina No. 5002, Ralston Purina Co., 711 West Fuesser Road, Mascoutah, Ill., 62224, USA), supplemented with 5.5% peanut oil, 1.5% cholesterol, and 0.3%-0.5% cholic acid, together with 0.05% of the test drug which is admixed into the diet. After one week the animals are etherized and a blood sample is taken from the heart and mixed with 0.14% ethylenediamine tetraacetic acid (EDTA) to measure the total cholesterol.

[2] = target: T1, acyl-CoA:cholesterol acyltransferase (ACAT) (Oryctolagus cuniculus, UniProt G1SFD9); assay: in vitro ACAT inhibition test (radiolabeled cholesterol oleate formed from radiolabeled oleic acid, rabbit intestinal microsomes); format: biochemical; conditions: inhibition of acylation of cholesterol by oleic acid
T1 construct: a tissue preparation containing rabbit intestinal microsomes; from tissue; host or cells: rabbit intestinal microsomes
T1 sequence (G1SFD9 1-524): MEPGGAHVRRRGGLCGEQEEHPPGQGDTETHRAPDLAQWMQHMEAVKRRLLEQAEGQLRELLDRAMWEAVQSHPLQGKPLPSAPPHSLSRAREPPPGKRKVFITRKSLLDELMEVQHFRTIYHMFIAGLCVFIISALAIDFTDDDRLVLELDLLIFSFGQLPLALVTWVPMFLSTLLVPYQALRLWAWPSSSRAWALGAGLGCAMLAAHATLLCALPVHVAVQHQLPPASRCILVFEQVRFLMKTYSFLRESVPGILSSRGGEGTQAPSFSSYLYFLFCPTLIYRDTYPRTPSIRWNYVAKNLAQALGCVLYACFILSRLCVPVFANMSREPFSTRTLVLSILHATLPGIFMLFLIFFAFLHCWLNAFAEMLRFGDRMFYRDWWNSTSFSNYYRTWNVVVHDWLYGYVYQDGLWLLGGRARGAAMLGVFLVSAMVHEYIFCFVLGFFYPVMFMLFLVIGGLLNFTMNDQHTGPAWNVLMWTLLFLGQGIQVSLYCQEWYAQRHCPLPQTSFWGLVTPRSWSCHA
From the text: As shown by the data presented below in Table 1, the compounds of the present invention are potent inhibitors of the enzyme acyl-CoA:cholesterolacyltransferase (ACAT), and are thus effective in inhibiting the esterification and transport of cholesterol across the intestinal cell wall. The compounds of the present invention are thus useful in pharmaceutical formulations for the treatment of hypercholesterolemia or atherosclerosis. The ability of representative compounds of the present invention to inhibit ACAT was measured using an in vitro test more fully described in Field, F. J. and Salone, R. G., Biochemica et Biophysica 712:557-570 (1982). The test assesses the ability of a test compound to inhibit the acylation of cholesterol by oleic acid by measuring the amount of radio-labeled cholesterol oleate formed from radiolabeled oleic acid in a tissue preparation containing rabbit intestinal microsomes. The data appear in Table 1 where they are expressed as IC50 values; i.e. the concentration of test compound required to inhibit 50% expression of the enzyme.

| SMILES | pIC50 [2] | Blood Cholesterol [1] [mg/dL] | Blood Cholesterol % Change [1] [%] |
| --- | --- | --- | --- |
| CCc1cccc(CC)c1NC(=O)NCC(c1ccccc1)c1ccccc1 [Example 3, N-(2,6-Diethylphenyl)-N'-(2,2-diphenylethyl)urea] | 7.04 | 105 | -53 |
| CC(C)c1cccc(C(C)C)c1NC(=O)NCC(c1ccccc1)c1ccccc1 [Example 4, N-[2,6-bis(1-methylethyl)phenyl]-N'-(2,2-diphenylethyl)urea] | 7.62 | 95 | -52 |
| CC(C)c1cccc(C(C)C)c1NC(=O)NC(c1ccccc1)c1ccccc1 [Example 5, N-[2,6-bis(1-methylethyl)phenyl)-N'-(diphenylmethyl)urea] | 7.35 | – | – |

Second part, led by results:

| pIC50 [2] | SMILES | Blood Cholesterol [1] [mg/dL] | Blood Cholesterol % Change [1] [%] |
| --- | --- | --- | --- |
| 7.03 | CCc1cccc(CC)c1NC(=O)NC(Cc1ccccc1)c1ccccc1 (stereo not shown) [Example 1, N-(2,6-Diethylphenyl)-N'-(1,2-diphenylethyl)urea] | 147 | -29 |
| 7.10 | CCc1cccc(CC)c1NC(=O)NC(c1ccccc1)c1ccccc1 [Example 2, N-(2,6-Diethylphenyl)-N'-(diphenylmethyl)urea] | 127 | -43 |
